# Counter-ions that a name gives are not always drawn. Activity calls are given as the source filed them. How the calls were made is not given here.
# Assay: Cytotoxicity activity against human HepG2 cells assessed by CellTiter-Glo luminescent cell viability assay.
# Format: toxicity, cell-based
# Parameters: assay stage confirmatory assay, source tissue liver
# Details: HepG2 cells, read-out: IC50 relative
row,SMILES,CC50
1,COC[C@H](NC(=O)c1cnc(C)s1)C(=O)N[C@@H](COC)C(=O)N[C@@H](Cc1ccccc1)C(=O)[C@@]1(C)CO1 [OPROZOMIB],0.1 µM (active)
2,CC(C)Oc1ccc(-c2nc(-c3cccc4c3CC[C@@H]4NCCO)no2)cc1C#N [OZANIMOD],3.4 µM (active)
3,C=CCc1cccc(/C=N/NC(=O)CN2CCN(Cc3ccccc3)CC2)c1O [PAC-1],6.3 µM (active)
4,COc1ccc(Cc2nccc3cc(OC)c(OC)cc23)cc1OC [PAPAVERINE],12.8 µM (active)
5,Fc1ccc([C@@H]2CCNC[C@H]2COc2ccc3c(c2)OCO3)cc1 [PAROXETINE HYDROCHLORIDE],4.1 µM (active)
6,O=[N+]([O-])c1ccc(-c2nc(-c3ccncc3)c(-c3ccc(F)cc3)[nH]2)cc1 [PD-169316],50 µM (inactive)
7,CCOc1cc2ncc(C#N)c(Nc3ccc(F)c(Cl)c3)c2cc1NC(=O)/C=C/CN(C)C [PELITINIB],1.8 µM (active)
8,N=C(N)c1ccc(OCCCCCOc2ccc(C(=N)N)cc2)cc1 [PENTAMIDINE ISETHIONATE],3.4 µM (active)
9,OCCN1CCN(CCCN2c3ccccc3Sc3ccc(Cl)cc32)CC1 [PERPHENAZINE],3.4 µM (active)
10,FC(F)(F)c1ccc(CNc2ccc(Cc3c[nH]c4ncc(Cl)cc34)cn2)cn1 [PEXIDARTINIB],5.2 µM (active)
11,Cc1ccc(-n2nc(C(C)(C)C)cc2NC(=O)NCc2cc(F)ccc2Oc2ccc3c(cnn3CCO)c2)cc1 [PEXMETINIB],2.4 µM (active)
12,Cc1nc(Nc2n[nH]c3c2CN(C(=O)N[C@H](CN(C)C)c2ccccc2)C3(C)C)c2sccc2n1 [PF-03758309],0.4 µM (active)
13,COc1ccc(-c2cc3c(C)nc(N)nc3n([C@H]3CC[C@H](OCCO)CC3)c2=O)cn1 [PF-04691502],0.6 µM (active)
14,CC(C)CC(=O)Nc1[nH]nc2c1CN(C(=O)C1CCN(C)CC1)C2(C)C [PHA-793887],1 µM (active)
15,CS(=O)(=O)N1CCN(Cc2cc3nc(-c4cccc5[nH]ncc45)nc(N4CCOCC4)c3s2)CC1 [PICTILISIB],0.9 µM (active)
16,O=C(NC[C@H](O)CO)c1ccncc1Nc1ccc(I)cc1F [PIMASERTIB],< 0.1 µM (active)
17,O=c1[nH]c2ccccc2n1C1CCN(CCCC(c2ccc(F)cc2)c2ccc(F)cc2)CC1 [PIMOZIDE],4.6 µM (active)
18,O=C(c1c(F)ccc(NS(=O)(=O)N2CC[C@@H](F)C2)c1F)c1c[nH]c2ncc(-c3cnc(C4CC4)nc3)cc12 [PLIXORAFENIB],5.4 µM (active)
19,Cc1ccc(C(=O)Nc2ccc(CN3CCN(C)CC3)c(C(F)(F)F)c2)cc1C#Cc1cnc2cccnn12 [PONATINIB],0.3 µM (active)
20,CC[C@@H]([C@H](C)O)n1ncn(-c2ccc(N3CCN(c4ccc(OC[C@@H]5CO[C@@](Cn6cncn6)(c6ccc(F)cc6F)C5)cc4)CC3)cc2)c1=O [POSACONAZOLE],19.6 µM (inactive)
21,C=CC(=O)N1CCC(Oc2cc3c(Nc4ccc(Cl)c(Cl)c4F)ncnc3cc2OC)CC1 [POZIOTINIB],18.7 µM (inactive)
22,C#CCC(Cc1cnc2nc(N)nc(N)c2n1)c1ccc(C(=O)N[C@@H](CCC(=O)O)C(=O)O)cc1 (stereo not given in full) [PRALATREXATE],< 0.1 µM (active)
23,CO[C@]1(C(=O)N[C@@H](C)c2ccc(-n3cc(F)cn3)nc2)CC[C@H](c2nc(C)cc(Nc3cc(C)[nH]n3)n2)CC1 [PRALSETINIB],9.3 µM (active)
24,COc1cc2nc(N3CCN(C(=O)c4ccco4)CC3)nc(N)c2cc1OC [PRAZOSIN HYDROCHLORIDE],6.6 µM (active)

row,SMILES,CC50
1,C=CC(=O)N1CCN(CCCn2c(=O)c(-c3c(Cl)c(OC)cc(OC)c3Cl)cc3cnc(NC)nc32)CC1 [PRN-1371],9.6 µM (active)
2,O=C(CCN1CCC(c2ccccc2)C1)c1ccc2c(c1)OCCO2 (stereo not given) [PROROXAN HYDROCHLORIDE],8.4 µM (active)
3,CNCCCC1c2ccccc2C=Cc2ccccc21 [PROTRIPTYLINE HYDROCHLORIDE],8.9 µM (active)
4,CC(C)[C@H](CO)Nc1nc(Nc2cccc(Cl)c2)c2ncn(C(C)C)c2n1 [PURVALANOLA],14.4 µM (active)
5,CC(C)(C)c1ccc(CSc2cnn(C(C)(C)C)c(=O)c2Cl)cc1 [PYRIDABEN],0.3 µM (active)
6,CCc1nc(N)nc(N)c1-c1ccc(Cl)cc1 [PYRIMETHAMINE],6 µM (active)
7,[O-][n+]1ccccc1S [PYRITHIONE],1.1 µM (active)
8,CCN(CC)CCCC(C)Nc1c2ccc(Cl)cc2nc2ccc(OC)cc12 (stereo not given) [QUINACRINE DIHYDROCHLORIDE],1.1 µM (active)
9,Cc1cnc(NC(=O)Nc2cc(Br)c(C)cc2OC[C@@H]2CNCCO2)cn1 [RABUSERTIB],5.9 µM (active)
10,Cn1c(Nc2ccc(C(F)(F)F)cc2)nc2cc(Oc3ccnc(-c4ncc(C(F)(F)F)[nH]4)c3)ccc21 [RAF-265],1.5 µM (active)
11,CC(C)(C)Cn1c(N)nc2ccc(-c3[nH]c(C(C)(C)C)nc3-c3ccc(F)cc3)nc21 [RALIMETINIB MESYLATE],13.2 µM (active)
12,Cn1nccc1Nc1nccc(-c2ccn([C@H](CO)c3ccc(Cl)c(F)c3)c(=O)c2)n1 [RAVOXERTINIB],0.7 µM (active)
13,COc1cc(F)c(F)c(Nc2ccc(I)cc2F)c1NS(=O)(=O)C1(C[C@H](O)CO)CC1 [REFAMETINIB],0.1 µM (active)
14,CNC(=O)c1cc(Oc2ccc(NC(=O)Nc3ccc(Cl)c(C(F)(F)F)c3)c(F)c2)ccn1 [REGORAFENIB],1.7 µM (active)
15,C[C@H]1CNC(=O)c2cnn3ccc(nc23)N[C@H](C)c2cc(F)ccc2O1 [REPOTRECTINIB],3.7 µM (active)
16,COC(=O)[C@H]1[C@H]2C[C@@H]3c4[nH]c5cc(OC)ccc5c4CCN3C[C@H]2C[C@@H](OC(=O)c2cc(OC)c(OC)c(OC)c2)[C@@H]1OC [RESERPINE],11.8 µM (active)
17,CN(CCN1CCC(OC(=O)Nc2ccccc2-c2ccccc2)CC1)C(=O)c1ccc(CN2CCC(C(N)=O)CC2)cc1 [REVEFENACIN],13.2 µM (active)
18,COc1ccc(F)c(F)c1C(=O)c1cnc(NC2CCN(S(C)(=O)=O)CC2)nc1N [RG-547],0.5 µM (active)
19,COCCN1CCN(Cc2ccc(-c3n[nH]c4c3C(=O)c3c(NC(=O)NN5CCOCC5)cccc3-4)cc2)CC1 [RGB-286638],0.2 µM (active)
20,O=C(CCCCCCNC(=O)c1cnc(N(c2ccccc2)c2ccccc2)nc1)NO [RICOLINOSTAT],3.5 µM (active)
21,Cc1cc(/C=C/C#N)cc(C)c1Nc1ccnc(Nc2ccc(C#N)cc2)n1 [RILPIVIRINE],11 µM (inactive)
22,CCOc1cc(C(C)(C)C)ccc1C1=N[C@@](C)(c2ccc(Cl)cc2)[C@@](C)(c2ccc(Cl)cc2)N1C(=O)N1CCN(CCCS(C)(=O)=O)CC1 [RO-5045337],6.3 µM (active)
23,C[C@@H](OC[C@@]1(c2ccccc2)CC[C@]2(CCC(=O)N2)CN1)c1cc(C(F)(F)F)cc(C(F)(F)F)c1 [ROLAPITANT],8.9 µM (active)
24,C=C(C)[C@H]1Cc2c(ccc3c2O[C@@H]2COc4cc(OC)c(OC)cc4[C@@H]2C3=O)O1 [ROTENONE],0.5 µM (active)

row,SMILES,CC50
1,O=C(N/N=C/c1ccccc1O)c1ccncc1 [SALINAZID],9.5 µM (active)
2,OCc1cc(C(O)CNCCCCCCOCCCCc2ccccc2)ccc1O (stereo not given) [SALMETEROL],6.6 µM (active)
3,CC(C)n1nc(-c2ccc3oc(N)nc3c2)c2c(N)ncnc21 [SAPANISERTIB],0.2 µM (active)
4,Cn1cc(-c2cnn3c(N)c(Br)c([C@@H]4CCCNC4)nc23)cn1 [SCH-900776],10.9 µM (active)
5,CC[C@H](CO)Nc1nc(NCc2ccccc2)c2ncn(C(C)C)c2n1 [SELICICLIB],7.8 µM (active)
6,Cc1cc(F)c(C(=O)Nc2cccc(-c3nncn3C(C)C)n2)cc1-n1cnc(C2CC2)c1 [SELONSERTIB],12.3 µM (active)
7,O=C1NCCN1CCN1CCC(c2cn(-c3ccc(F)cc3)c3ccc(Cl)cc23)CC1 [SERTINDOLE],2.7 µM (active)
8,CN1CCC(CNc2ccc3ncc(-c4cccc(OC(F)(F)F)c4)n3n2)CC1 [SGI-1776],1.5 µM (active)
9,CCC(C)(C)C(=O)O[C@H]1C[C@@H](C)C=C2C=C[C@H](C)[C@H](CC[C@@H]3C[C@@H](O)CC(=O)O3)[C@H]21 [SIMVASTATIN],17.1 µM (inactive)
10,CO[C@H]1C[C@@H]2CC[C@@H](C)[C@@](O)(O2)C(=O)C(=O)N2CCCC[C@H]2C(=O)O[C@H]([C@H](C)C[C@@H]2CC[C@@H](O)[C@H](OC)C2)CC(=O)[C@H](C)/C=C(\C)[C@@H](O)[C@@H](OC)C(=O)[C@H](C)C[C@H](C)/C=C/C=C/C=C/1C [SIROLIMUS],17.5 µM (inactive)
11,COCCNCc1ccc(-c2cc3nccc(Oc4ccc(NC(=O)C5(C(=O)Nc6ccc(F)cc6)CC5)cc4F)c3s2)nc1 [SITRAVATINIB],4.6 µM (active)
12,O=C(Nc1cccc(Cl)c1)Nc1ncc(CCNc2ncnc3ccsc23)s1 [SNS-314 MESYLATE],10.1 µM (active)
13,CC1(C)CC(=O)c2c(C(F)(F)F)nn(-c3ccc(C(N)=O)c(N[C@H]4CC[C@H](O)CC4)c3)c2C1 [SNX-2112],< 0.1 µM (active)
14,Cc1c(C(=O)Nc2ccc(N3C[C@@H](C)O[C@@H](C)C3)nc2)cccc1-c1ccc(OC(F)(F)F)cc1 [SONIDEGIB],37.3 µM (inactive)
15,C=CC(=O)Nc1cccc(Nc2nc(Nc3ccc(OCCOC)cc3)ncc2F)c1 [SPEBRUTINIB],1.3 µM (active)
16,CCCCCCCCCCCCC/C=C/[C@@H](O)[C@@H](N)CO [SPHINGOSINE],11.2 µM (active)
17,CCOC(=O)N1CCC(CN(Cc2ccc(Cl)cc2)Cc2ccc([N+](=O)[O-])s2)C1 (stereo not given) [SR9009],24.4 µM (inactive)
18,N#Cc1cnc(Nc2cc(NC[C@H]3CNCCO3)c(C(F)(F)F)cn2)cn1 [SRA-737],7.2 µM (active)
19,COc1ccc2c(c1)/C(=C/c1cnc[nH]1)C(=O)N2 [SU-9516],8.9 µM (active)
20,Clc1ccc(CSC(Cn2ccnc2)c2ccc(Cl)cc2Cl)cc1 (stereo not given) [SULCONAZOLE NITRATE],14.9 µM (inactive)
21,O=S(=O)(c1ccccc1)N(CC(F)(F)F)c1ccc(C(O)(C(F)(F)F)C(F)(F)F)cc1 [T091317],13.4 µM (inactive)
22,CC(C)(O)CC(=O)NCCn1ccc2ncnc(Nc3ccc(Oc4cccc(C(F)(F)F)c4)c(Cl)c3)c21 [TAK-285],10.5 µM (active)
